Measurements taken from patent US7968098B2, “HLA-A24-binding KIF-derived peptide” (Kurume University, priority 2006, dated 2011).
Where two headings read alike, the source gives them in different places. No end group written: not given here.

How the values were obtained:
[1] = test system: KNS-81 cells; assay: 6-h 51Cr-release cytotoxicity assay of peptide-stimulated PBMCs / CD8+ T cells; assay type: cell-based, human; conditions: for Cytotoxicity of peptide-induced CD8+ T cells on addition of anti-HLA class I mAb / Cytotoxicity on addition of unlabeled C1R-A24 cells pre-pulsed with corresponding KIF peptide (cold inhibition): KNS-81 cells; for Cytotoxicity of peptide-induced CD8+ T cells on addition of anti-HLA class I mAb: FIG. 3A, not inhibited by anti-HLA class II (HLA-DR) or anti-CD14 mAb; for Cytotoxicity on addition of unlabeled C1R-A24 cells pre-pulsed with corresponding KIF peptide (cold inhibition): FIG. 3B, not inhibited by HIV peptide-pulsed C1R-A24 cells; for Cytotoxicity of peptide-stimulated PBMCs against KNS-81 cells: patients 3 and 5, HLA-A24+ KNS-81 vs HLA-A24- No. 11 cells and HLA-A24+ T-cell blasts
Procedure: Peptide-stimulated PBMCs were tested for their cytotoxicity against No. 11 (HLA-A24 negative) and KNS-81 (HLA-A24 positive) by a standard 6-h ^51Cr-release assay. Phytohaemagglutinin (PHA)-activated T cells (T cell blast) from HLA-A24 positive healthy donors were used as a negative control. The PBMCs were stimulated with each of the KIF peptides (10 μg/ml) in the presence of IL-2 (100 units/ml) every 3 days for 15 days, followed by incubation with IL-2 alone for an additional 15 days. After CD8^+ T cells were positively isolated using a CD8-positive isolation kit (Dynal, Oslo, Norway), 2,000 ^51Cr-labeled cells per well were cultured with effector cells in 96-round-well plates. The specific ^51Cr-release was calculated according to the following formula: % specific lysis=(test sample release−spontaneous release)×100/(maximum release−spontaneous release). Spontaneous release was determined using the supernatant of the sample incubated with no effector cells, and the maximum release was then determined by the supernatant of the sample incubated with 1% Triton X (Wako Pure Chemical Industries, Osaka, Japan). In some experiments, anti-HLA class I (W6/32, mouse IgG2a) (BioLegend, Camino Santa Fe, San Diego, Calif., USA), anti-HLA class II (HLA-DR) (L243, mouse IgG2a) (ATCC #HB-55), and anti-CD14 (JML-H14, mouse IgG2a) (established in Department of Immunology, Kurume University) mAb were added to the wells at the initiation of the culture. The specificity of peptide-stimulated PBMCs was also confirmed by a cold inhibition assay. 20,000 unlabeled C1R-A24 cells, which were pre-pulsed with either the HIV peptide or a corresponding peptide, were used as cold target cells. Unlabeled C1R-A24 cells were added at a hot to cold target ratio of […].

[2] = test system: anti-peptide immunoglobulin G (IgG) in plasma; assay: Anti-peptide IgG in plasma measured by the Luminex system; assay type: binding, human; conditions: for Positive cases/total cases, Patients: Table 3, IgGs reactive to peptide in plasma of glioma patients; for Positive cases/total cases, Healthy donors: Table 3, IgGs reactive to peptide in plasma of healthy donors; for Positive cases/total cases, Total: Table 3, patients plus healthy donors; for Recognition by IgGs in the plasma compared with the other peptides: plasma of glioma patients and healthy donors; for Total (IgG-positive cases/total cases): positive = >1.25 times no peptide control
Procedure: The levels of anti-peptide immunoglobulin G (IgG) were measured by the Luminex™ system as previously reported (Komatsu N et al, Scand J Clin Invest 2004; 64: 1-11). In brief, plasma was incubated with 25 μl of peptide-coupled color-coded beads (Luminex Corp., Austin, Tex., USA) for 2 h at room temperature on a plate shaker. After incubation, the mixture was washed with a vacuum manifold apparatus and incubated with 100 μl of biotinylated goat anti-human IgG (BA-3080, Vector Laboratories, Burlingame, Calif., USA) for 1 h at room temperature. The plate was then washed, and 100 μl of streptavidin-PE (S-866, Molecular Probes, Eugene, Oreg., USA) was added to each well and was incubated for 30 min at room temperature on a plate shaker. The bound beads were washed three times followed by the addition of 100 μl of Tween-PBS to each well. Fifty μl of each sample was then examined using the Luminex™ system.
Next, the abilities of the KIF-derived peptides to be recognized by IgGs of glioma patients were examined, because IgGs reactive to CTL-directed peptides are detectable in the plasma of patients with different types of cancer (Nakatsura T et al, Eur J Immunol 32: 826-836, 2002), along with that levels of IgG well correlated with clinical responses of patients who received peptide vaccination as reported previously (Mine T et al, Clin Cancer Res 10: 929-937, 2004; Yajima N et al, Clin Cancer Res 11: 5900-5911, 2005). IgGs reactive to a corresponding peptide were judged to be significant when the immunofluorescence intensity in 1:100-diluted plasma exceeded 1.25 times that of the control samples with no peptides. […] Based on these findings, these 8 KIF peptides (3 for KIF1C, 3 for KIF3C, and 2 for KIF21B) were the focus of the following experiments.

[3] = test system: PBMCs of HLA-A24+ glioma patients; assay type: cell-based, human; conditions: for Total (patients with induction of peptide-reactive CTLs): HLA-A24+ glioma patients, positive = P<0.05 and >100 pg/ml IFN-γ over HIV peptide; for IFN-γ: vs HIV peptide
[4] = PBMCs of HLA-A24+ glioma Patient 1, 10 μg/ml peptide
[5] = PBMCs of HLA-A24+ glioma Patient 2, 10 μg/ml peptide
[6] = PBMCs of HLA-A24+ glioma Patient 3, 10 μg/ml peptide
[7] = PBMCs of HLA-A24+ glioma Patient 5, 10 μg/ml peptide
[8] = PBMCs of HLA-A24+ glioma Patient 8, 10 μg/ml peptide
[9] = PBMCs of HLA-A24+ glioma Patient 10, 10 μg/ml peptide
[10] = PBMCs of HLA-A24+ glioma Patient 4, 10 μg/ml peptide
[11] = PBMCs of HLA-A24+ glioma Patient 9, 10 μg/ml peptide
[12] = PBMCs of HLA-A24+ glioma Patient 7, 10 μg/ml peptide

Sequence	Positive cases/total cases, Patients [2]	Positive cases/total cases, Healthy donors [2]	Positive cases/total cases, Total [2]	Recognition by IgGs in the plasma compared with the other peptides [2]	Total (patients with induction of peptide-reactive CTLs) [3]	IFN-γ [3, 4] [pg/mL]	IFN-γ [3, 5] [pg/mL]	IFN-γ [3, 6] [pg/mL]	IFN-γ [3, 8] [pg/mL]	IFN-γ [3, 9] [pg/mL]	IFN-γ [3, 10] [pg/mL]	IFN-γ [3, 11] [pg/mL]	also measured
IYCERVRDLL [KIF1C 149-158]	–	–	–	–	–	–	–	–	–	–	–	–	Cytotoxicity of peptide-induced CD8+ T cells on addition of anti-HLA class I mAb [1]: significantly inhibited; Cytotoxicity on addition of unlabeled C1R-A24 cells pre-pulsed with corresponding KIF peptide (cold inhibition) [1]: significantly inhibited; Cytotoxicity of peptide-stimulated PBMCs against KNS-81 cells [1]: higher level of cytotoxicity against HLA-A24^+ KNS-81 cells
NYLQEQKERL (KIF3C 458-467 peptide)	4/10	4/10	8/20	more frequently	3/10	34	0	30	38	0	–	–	IFN-γ [3, 7]: 66 pg/mL; IFN-γ ([3]; PBMCs of HLA-A24+ glioma Patient 6, 10 μg/ml peptide): 55 pg/mL
RYRAENIMF (KIF3C 702-710 peptide)	7/10	9/10	16/20	more frequently	3/10	11	0	73	96	0	0	22	–
KYKAMESKL [KIF3C 512-520]	–	–	–	–	–	–	–	–	–	–	–	–	Cytotoxicity of peptide-induced CD8+ T cells on addition of anti-HLA class I mAb [1]: significantly inhibited; Cytotoxicity on addition of unlabeled C1R-A24 cells pre-pulsed with corresponding KIF peptide (cold inhibition) [1]: significantly inhibited; Cytotoxicity of peptide-stimulated PBMCs against KNS-81 cells [1]: higher level of cytotoxicity against HLA-A24^+ KNS-81 cells
GYASTDEEI (KIF21B 220-228 peptide)	2/10	3/10	5/20	more frequently	4/10	0	29	56	–	0	–	0	IFN-γ [3, 12]: 51 pg/mL
IYCERVRDL (KIF1C 149-157 peptide)	7/10	8/10	15/20	more frequently	4/10	92	0	–	0	0	50	–	Immunofluoresence intensity ([2]; Healthy donor 2, 1:100-diluted plasma): 31.8; Immunofluoresence intensity ([2]; Healthy donor 4, 1:100-diluted plasma): 47.8; Total (IgG-positive cases/total cases) ([2]; Table 2, glioma patients): 7/10; Total (IgG-positive cases/total cases) ([2]; Table 2, healthy donors): 8/10; Immunofluoresence intensity ([2]; glioma Patient 4, 1:100-diluted plasma): 29.5; Immunofluoresence intensity ([2]; glioma Patient 8, 1:100-diluted plasma): 12.3; Immunofluoresence intensity ([2]; glioma Patient 9, 1:100-diluted plasma): 27.3; IFN-γ [3, 7]: 0 pg/mL
HYDGIECLAI (KIF21B 621-630 peptide)	2/10	5/10	7/20	more frequently	3/10	0	10	0	–	0	0	0	IFN-γ [3, 12]: 93 pg/mL
